According to patent publication US20140322149A1, “COMPOUND USEFUL FOR TREATING CELLULITE” (SIGMA-TAU INDUSTRIE FARMACEUTICHE RIUNITE S.P.A., priority 2008, published 2014):

System: cellulite in the thigh
Assay: Anticellulite activity, intradermal multiple injection in the thigh of female subjects
Type: in vivo, human
Conditions: for Irritation reactions: during treatment; for Irritation reactions / Reduction of the fatty layer thickness / Reduction of the thigh diameter / Skin firmness / Skin hydration / Surface smoothness / Subjective improvement: 50.0 mg in 2.5 mL intradermally by multiple injection; for Irritation reactions / Reduction of the fatty layer thickness / Reduction of the thigh diameter / Skin firmness / Skin hydration / Surface smoothness / Subjective improvement / Clinical grading: once per week; for Reduction of the fatty layer thickness / Reduction of the thigh diameter / Skin firmness / Skin hydration / Surface smoothness: end of treatment (week 6) vs base line; for Subjective improvement / Clinical grading: end of treatment (week 6); for Clinical grading: visual grading of degree of cellulite, scale 0-4, 50.0 mg in 2.5 mL intradermally; for Anticellulite activity (overall, in words): comparison among propionyl L-carnitine, acetyl L-carnitine and L-carnitine
Description: The effectiveness of intradermally administration of the product according to the invention was tested for its ability to reduce the appearance of cellulite in the thigh. A total of 54 female subjects ranging in age from 23 to 58 years of age were selected to evaluate the composition of the invention.
The subjects were selected based on their cellulite intensity in the thigh area having a bi-lateral symmetry. Subjects with grades 1 and 2 cellulite were chosen, as a 5-point grading scale was used to rate the cellulite severity of each subject. The scale ranged from 0 to 4, being 0=No cellulite; 1=Small bumps or depressions; 2=Striations and bumps; 3=Pronounced lumpiness of the skin and striations; 4=All of the above plus hard sub-surface nodules.
All subjects had the absence of any visible skin disease(s) which might be confused with a skin reaction from the test material and were in general good health with no known allergies, especially to cosmetic or toiletry products; had no evidence of acute or chronic disease; were not pregnant or lactating; were not on any diet or weight reduction program; and were not on any regular exercise program (immediately prior to or during the course of the study).
At baseline each subject received a visual examination conducted by a qualified technician and scored for the degree of cellulite. In the same day subjects were treated on the right and left thigh intradermally by multiple injection, (from 5 to 10 injections per thigh using a “Lebel needle” 4 mm×0.4 mm; 27 G). The treatment was repeated once per week for […] (week 0; 1; 2; 3; 4; and 5).
The degree of cellulite was evaluated according to the following scale: 0=No visible cellulite; 1=Very little visible cellulite, no dimpling; 2=Visible cellulite, evidence of shallow dimpling; 3=Easily visible cellulite, moderate to pronounced dimpling; 4=Extremely visible cellulite, heavy and deep dimpling.
The patients were divided in 3 groups and treated intradermally by multiple injection with a composition comprising:
Group A • Propionyl L-Carnitine: 50.0 mg; • Mannitol: 100.0 mg; • Sodium phosphate bibasic bi-hydrate: 24.0 mg; • Trometamine: 8.0 mg; • H2O: 2.5 mL (final volume);
Group B • Acetyl L-Carnitine: 50.0 mg; • Mannitol: 100.0 mg; • Sodium phosphate bibasic bi-hydrate: 24.0 mg; • Trometamine: 8.0 mg; • H2O: 2.5 mL (final volume); or
Group C • L-Carnitine: 50.0 mg; • Mannitol: 100.0 mg; • Sodium phosphate bibasic bi-hydrate: 24.0 mg; • Trometamine: 8.0 mg; • H2O: 2.5 mL (final volume).
Subjects were instructed to discontinue the use of their normal anti-cellulite products to avoid introducing any new products for treating cellulite during the study, and to not be on any diet or weight reduction program or on any regular exercise program immediately prior to or during the course of the study. Each subject was also instructed to keep a diary to document compliance.
After 7 days from the last treatment (week 6) the subjects returned to the hospital for a final visual evaluation.
The cellulite evaluation was made according the method described in Cosmetics & Toiletries, 61-70, June 1995, by comparison of the values before and after the treatment.

Compound	Irritation reactions	Reduction of the fatty layer thickness [%]	Reduction of the thigh diameter [%]	Skin firmness	Skin hydration	Surface smoothness	Subjective improvement	Clinical grading	Anticellulite activity (overall, in words) (summary of Table 1)	Effect on skin infrastructure (dermis of the skin) (summary of Table 1)	Anticellulite activity (overall, in words) (summary of Table 1, listed as compound of the invention)
CC(=O)O[C@H](CC(=O)[O-])C[N+](C)(C)C [Acetyl L-carnitine, Acetyl L-Carnitine]	0	−10	−2	+6%	+8%	+15%	+15%	+8%	inferior compared with that of propionyl L-carnitine	–	–
C[N+](C)(C)C[C@H](O)CC(=O)[O-] [L-carnitine, L-Carnitine]	–	−12	−3	+9%	+10%	+18%	+19%	+12%	inferior compared with that of propionyl L-carnitine	–	–
CCC(=O)O[C@H](CC(=O)[O-])C[N+](C)(C)C [Propionyl L-carnitine, Propionyl L-Carnitine]	0	−28	−11	+20%	+27%	+42%	+57%	+34%	effectively ameliorate the cellulite condition	improved skin infrastructure	significantly higher respect to the activity of L-carnitine or acetyl L-carnitine
